Measured values published in US11832638B2, “N-acyl derivatives of gamma amino-butyric acid and beta alanine as food flavouring compounds” (GIVAUDAN SA, priority 2012, dated 2023).

Assays:
[1] = Tasting in fish based product (fish sauce)
Procedure: (§1) The following formulations were prepared and tasted by trained panelists.
Salt level pure product between 5-40%
Salt level in application 0.3-1.0%
C18:2-gaba-(0.5 ppm) was added to a 1% diluted fish sauce sauce (0.27% salt).
C18:2-gaba-(0.5 ppm) was added to pure fish sauce (27% salt).

[2] = Tasting in low fat mayonnaise; conditions: 0.5 ppm in low fat mayonnaise (27% fat)
Procedure: as §1
Fat levels between 10-80%
Low fat Mayonnaise (27% Fat)

[3] = Tasting in standard chicken bouillon base; conditions: 0.5 PPM in standard chicken bouillon base, 0.7% salt, 0.5% fat
Procedure: as §1
Standard Chicken bouillon base, 0.7% salt, 0.5% fat

[4] = Tasting in cheese sauce; conditions: 0.5 PPM in cheese sauce 5% fat 1.6% salt
Procedure: as §1
Cheese sauce: 5% fat 1.6% salt

[5] = Tasting of chicken filet fried in oil; conditions: 2.0 PPM in 135 gram frying oil (82% fat)
Procedure: Differentiator high temperature 100-250 degrees Celsius in a frying in oil process
C18:2-gaba @ 2.0 PPM in 135 gram frying oil (blue band 82% Fat) 450 gram chicken filet 2 minutes high fire and 5 minutes medium fire.

[6] = Tasting of baked pizza; conditions: 0.5 PPM in the crust and 0.5 PPM in the tomato sauce, baked in hot air oven at 200 degrees Celsius
Excerpt: Differentiator high temperature 100-250 degrees Celsius in hot air baking process
C18:2-gaba @ 0.5 PPM in the crust and @ 0.5 PPM in the tomato sauce
The pizza was topped off with cheese and baked in a hot air oven @ 200 degrees Celsius

[7] = Tasting in fried potato snack product with cheese seasoning; conditions: fried potato base 35% fat
Procedure: Snack Product A snack product consisting of a fried potato base, containing 35% fat and flavored with cheese seasoning containing salt, MSG, dairy, organic acids, sugars, and a flavour formulation. The following compounds were added to the snack product at the indicated levels and the tasting results arc reported: […]

[8] = UHT milk cream flavoured, non sweetened, different fat levels; conditions: 2 ppm, cream flavour 0.03%
Procedure: The following tests were carried out on dairy products processed by fermentation, pasteurization or UHT. The products contain fat, protein and calcium.
UHT Milk Cream Flavoured, Non Sweetened and Different Fat Levels
In a UHT milk containing 0% 1.5% and 3% fat, flavoured with a proprietary cream flavour dosed at 0.03%
C18:2-gaba was added at 2 ppm.
Samples were evaluated by expert tasters.
Tasters were asked to describe the samples focusing on authentic taste , mouthfeel, fullness, salivation, sweetness, juiciness, richness, long lastingness and fattiness.

[9] = Strawberry flavoured sugar sweetened yoghurt; conditions: 2 ppm, 1.5% fat yoghurt base, 8% sucrose, strawberry flavour 0.015%
Excerpt: Strawberry Flavoured Sugar Sweetened Yoghurt
The base consisted of a 1.5% fat yoghurt base, sweetened with 8% sucrose by weight, flavoured with a proprietary strawberry flavour @ 0.015%.

[10] = Test on Tang powdered soft drink; conditions: 0.5 ppm, orange flavoured Tang
Procedure: In an orange flavoured Tang powdered soft drink (market product) sweetened with sucrose plus high intensity sweetener and containing citric acid and C18:2-gaba.
All samples were evaluated by expert tasters. Tasters were asked to describe the samples focusing on authentic taste, mouthfeel & body, enhancement, richness, juiciness, long lastingness, salivation, sweetness, masking off notes of high intensity sweetener
Base is Orange flavoured Tang

[11] = Test on Baileys cream liqueur; conditions: 1 ppm
Procedure: Test on Baileys Cream Liqueur:
In Baileys cream liqueur (Market Product) C18:2-gaba was added at 1 ppm.
Samples were evaluated by expert tasters. Tasters were asked to describe the samples focusing on authentic taste, alcohol impact, mouthfeel, fullness, salivation, sweetness, bitterness, richness, long lastingness and fattiness.
Base is Baileys cream liqueur

[12] = Test on Breezer Orange; conditions: 0.5 ppm
Procedure: Samples were evaluated by expert tasters. Tasters were asked to describe the samples focusing on authentic taste, alcohol impact, juiciness, mouthfeel, fullness, salivation, sweetness, bitterness, richness, long lastingness and fattiness.

[13] = Calve salad dressing low fat; conditions: 0.5 ppm
Excerpt: Calve Salad Dressing Low Fat:
Base is Calve salad dressing (market product)

[14] = Calve 60% reduced fat mayonnaise; conditions: 0.5 ppm, Calve mayonnaise 60% reduced fat
Excerpt: Calve 60% Reduced Fat Mayonnaise
Base is Calve Mayonnaise 60% reduced fat (market Product)

[15] = Comparison in a mango juice drink; conditions: 2 ppm, 8% sucrose, 0.1% citric acid, 0.18 g clear mango juice, mango flavour 0.05%
Excerpt: Comparison in a Mango Juice Drink
Base is 8% sucrose, 0.1% citric acid, 0.18 g clear mango juice, and a proprietary mango flavour at 0.05%.

[16] = Comparison in a strawberry drink; conditions: 2 ppm, 7% sucrose, 0.1% citric acid, strawberry flavour 0.015%
Excerpt: Comparison in a Strawberry Drink
Base is 7% sucrose, 0.1% citric acid, and a proprietary strawberry flavour @0.015%

[17] = Test in peach flavoured drink; conditions: 1 ppm, water, 8% sugar, 0.1% citric acid, peach flavour 0.05%
Excerpt: Test in Peach Flavoured Drink:
Base is water, 8% sugar, 0.1% citric acid, and proprietary peach flavour at 0.05%

With `CCCCC/C=C\C/C=C\CCCCCCCC(=O)NCCCC(=O)O` [C18:2-gaba] the “tasting result (trained panelists)” value ([1]; 0.5 ppm in 1% diluted fish sauce (0.27% salt)) was “stronger in umami, longer lasting and richer”, the “tasting result (trained panelists)” value ([1]; 0.5 ppm in pure fish sauce (27% salt)) was “strong in body and mouthfeel, more salty, richer with more rounded fish notes” and the “tasting result (trained panelists)” value [2] was “creamy, thick mouthfeel with a full fat impression”. The “tasting result (trained panelists)” value [3] was “Strong, Salty, Umami, mouthfeel”, the “tasting result (trained panelists)” value [4] was “Full, Salty, cheese bite expanding” and the “taste of the chicken” value ([5]; 450 gram chicken filet, 2 minutes high fire and 5 minutes medium fire) was “more juicy, succulent, lingering more white meat”. The “taste of the frying oil” value ([5]; after frying chicken filet) was “more savoury golden brown notes”, the “taste of crust, tomato and aftertaste of pizza” value [6] was “less dry, more succulent and the tomato was richer, sweeter and the total lingering aftertaste was very rich and pleasant” and the tasting result ([7]; 0.5 ppm) was “increased dairy, cheesy”. The tasting result ([7]; 1 ppm) was “Fatty full, cheesy, cheese crust, long lasting”, the “description by expert tasters” value ([8]; UHT milk 0% fat) was “Very creamy, milky, long lasting” and the “description by expert tasters” value ([8]; UHT milk 1.5% fat) was “very creamy, milky, long lasting, salivating”. The “description by expert tasters” value ([8]; UHT milk 3.0% fat) was “very creamy, milky, long lasting, taste like whipped cream”, the taste description [9] was “very creamy and fresh strawberry” and the “description by expert tasters” value [10] was “enhances sweet juicy orange notes, enhanced mouthfeel. Additionally, the off-notes of the high intensity sweetener were suppressed”. The “description by expert tasters” value [11] was “strongly enhanced alcohol effect, more cocoa, very creamy and long lasting aftertaste”, the “description by expert tasters” value [12] was “more alcoholic, sweeter, more juicy orange, less soapy” and the taste description [13] was “much fuller, creamy, rich, less acidic”. For the same molecule, the taste description [14] was “full, rich , creamy, more egg yolk taste”, the taste description [15] was “full long lasting nice juicy, almost a bit salty” and the taste description ([15]; listed as C18:2 gaba) was “fatty skin like, juicy, authentic”. For the same molecule, the taste description [16] was “fatty mouthfeel, creamy strawberry, fruity and juicy” and the taste description [17] was “fruity peach, long lasting, juicy and fatty skin like very authentic”.
